From ChEMBL document CHEMBL4765331, “Amides of pyrrole- and thiophene-fused anthraquinone derivatives: A role of the heterocyclic core in antitumor properties” (Eur J Med Chem, 2020)
Activity calls are given as the source filed them. The calls are words filed in the database; no cut-off is given here.

Assays:
[1] = test system: CAPAN-1; assay: Antiproliferative activity against human CAPAN-1 cells assessed as inhibition of cell proliferation measured after 72 hrs by MTT assay; type: functional, cell-based; settings: CAPAN-1, 72 h
[2] = test system: HCT-116; assay: Antiproliferative activity against human HCT-116 cells assessed as inhibition of cell proliferation measured after 72 hrs by MTT assay; type: functional, cell-based; settings: HCT-116, 72 h
[3] = test system: NCI-H460; assay: Antiproliferative activity against human NCI-H460 cells assessed as inhibition of cell proliferation measured after 72 hrs by MTT assay; type: functional, cell-based; settings: NCI-H460, 72 h
[4] = test system: HL-60; assay: Antiproliferative activity against human HL-60 cells assessed as inhibition of cell proliferation measured after 72 hrs by MTT assay; type: functional, cell-based; settings: HL-60, 72 h
[5] = test system: K562; assay: Antiproliferative activity against human K562 cells assessed as inhibition of cell proliferation measured after 72 hrs by MTT assay; type: functional, cell-based; settings: K562, 72 h
[6] = test system: TERT-RPE1; assay: Cytotoxicity against human TERT-RPE1 cells assessed as inhibition of cell proliferation measured after 72 hrs by MTT assay; type: cell-based; settings: RPE-1, 72 h
[7] = Antiproliferative activity against P-gp-positive/doxorubicin-resistant human K562/4 cells assessed as inhibition of cell proliferation measured after 72 hrs by MTT assay; type: functional; settings: K562/4, 72 h
[8] = test system: HCT-116; assay: Antiproliferative activity against human HCT-116 cells with inactivated p53 gene assessed as inhibition of cell proliferation measured after 72 hrs by MTT assay; type: functional, cell-based; settings: HCT-116, 72 h
[9] = Resistance index, ratio of IC50 for human P-gp-positive/Doxorubicin-resistant K562/4 cells to IC50 for human K562 cells; type: functional
[10] = test system: Calf thymus DNA; assay: Binding affinity to calf thymus double stranded DNA at 10 uM measured after 5 mins by flourescence spectroscopy method; settings: Bos taurus
[11] = test system: Calf thymus DNA; assay: Binding affinity to calf thymus DNA assessed as DNA intercalation by measuring decrease of negative DNA band at 245 nm at 50 uM by circular dichroism spectral analysis; type: tissue-based; settings: Bos taurus
[12] = test system: Calf thymus DNA; assay: Binding affinity to calf thymus DNA assessed as binding constant by scatchard plot analysis; settings: Bos taurus
[13] = test system: Calf thymus DNA; assay: Binding affinity to calf thymus DNA assessed as dissociation constant by scatchard plot analysis; set-up: species or system Bos taurus
[14] = test system: Calf thymus DNA; assay: Binding affinity to calf thymus DNA assessed as stoichiometry ratio of compound-DNA complex formation by scatchard plot analysis; settings: Bos taurus
[15] = test system: P388; assay: Antitumour activity against mouse P388 cells xenografted intraperitoneally in BDF1 mouse assessed as mean life span time at 20 mg/kg, ip administered qd for 5 days (reference value: 11.5 +/-0.9 days); type: functional; settings: dose 20 mg/kg/day; time 5 day
[16] = test system: P388; assay: Antitumour activity against mouse P388 cells xenografted intraperitoneally in BDF1 mouse assessed as […] T/C ratio at 20 mg/kg, ip administered qd for 5 days (reference value: 100%); type: functional; settings: dose 20 mg/kg/day; time 5 day
[17] = Drug uptake in mouse NIH3T3 cells assessed as compound localization in nucleus at 1 uM measured after 15 mins by laser scanning microscope; type: ADME, subcellular; settings: nih3t3, 0.25 h

| Structure (SMILES) | IC50 [1] | IC50 [2] | IC50 [3] | IC50 [4] | IC50 [5] | IC50 [6] | IC50 [7] | IC50 [8] | Ratio IC50 [9] | Activity [10] | Activity [11] | Kb [12] | Kd [13] | Ratio [14] | Time [15] | T/C [16] | Drug uptake [17] |
| --- | --- | --- | --- | --- | --- | --- | --- | --- | --- | --- | --- | --- | --- | --- | --- | --- | --- |
| NC1CCN(C(=O)c2csc3c(O)c4c(c(O)c23)C(=O)c2ccccc2C4=O)CC1 | 0.3 µM | 1.9 µM | 1.7 µM | 0.9 µM | 2 µM | 15.7 µM | – | – | – | – | – | – | – | – | – | – | – |
| Cc1c(C(=O)N2CC[C@H](N)C2)c2c(O)c3c(c(O)c2n1Cc1ccccc1)C(=O)c1ccccc1C3=O | 1.6 µM | 1.8 µM | 5.4 µM | 1.1 µM | 0.7 µM | 14.7 µM | 5.5 µM | 1.8 µM | 7.9 | – | – | – | – | – | – | – | – |
| Cc1[nH]c2c(O)c3c(c(O)c2c1C(=O)NC1CCNCC1)C(=O)c1ccccc1C3=O | 0.3 µM | 1.5 µM | 1.1 µM | 0.2 µM | 0.4 µM | 11.8 µM | – | – | – | – | – | – | – | – | – | – | – |
| CCn1c(C)c(C(=O)N2CC[C@H](N)C2)c2c(O)c3c(c(O)c21)C(=O)c1ccccc1C3=O | 1.2 µM | 2.3 µM | 2.1 µM | 1.1 µM | 1.7 µM | 13.6 µM | 28 µM | 2.5 µM | 16.5 | – | – | – | – | – | – | – | – |
| Cc1[nH]c2c(O)c3c(c(O)c2c1C(=O)N1C[C@@H](N)[C@H](N)C1)C(=O)c1ccccc1C3=O | 8.7 µM | 4.8 µM | 11.4 µM | 3.1 µM | 2.4 µM | > 20 µM | > 50 µM | 7 µM | >20.8 | – | – | – | – | – | – | – | – |
| NC1CCCN(C(=O)c2csc3c(O)c4c(c(O)c23)C(=O)c2ccccc2C4=O)C1 (racemic) | 1.1 µM | 0.8 µM | 4.3 µM | 3 µM | 1.3 µM | 7.9 µM | – | – | – | – | – | – | – | – | – | – | – |
| N[C@@H]1CN(C(=O)c2csc3c(O)c4c(c(O)c23)C(=O)c2ccccc2C4=O)C[C@H]1N | 2.6 µM | 4 µM | 12.7 µM | 4.7 µM | 1.3 µM | 9.1 µM | 14.5 µM | 3.8 µM | 11.2 | – | – | – | – | – | – | – | – |
| Cc1c(C(=O)N2CC[C@H](N)C2)c2c(O)c3c(c(O)c2n1CC(=O)O)C(=O)c1ccccc1C3=O | 14.3 µM | 17.1 µM | 20 µM | 13.3 µM | 13.4 µM | > 20 µM | – | – | – | – | – | – | – | – | – | – | – |
| O=C1c2ccccc2C(=O)c2c1c(O)c1scc(C(=O)N[C@H]3CCNC3)c1c2O | 2.8 µM | 0.9 µM | 1.4 µM | 3.9 µM | 0.7 µM | 14.9 µM | – | – | – | – | – | – | – | – | – | – | – |
| Cc1c(C(=O)N2CC[C@H](N)C2)c2c(O)c3c(c(O)c2n1C)C(=O)c1ccccc1C3=O | 1.1 µM | 1.8 µM | 16.3 µM | 0.7 µM | 1.2 µM | 16.1 µM | 25 µM | 3.2 µM | 19.2 | Active | Active | 7.5 10^5/M | 1.3 µM | 3 | – | – | – |
| O=C1c2ccccc2C(=O)c2c1c(O)c1scc(C(=O)N[C@@H]3CCNC3)c1c2O | 2.2 µM | 0.8 µM | 2 µM | 4.6 µM | 0.5 µM | 15.5 µM | – | – | – | – | – | – | – | – | – | – | – |
| Cc1[nH]c2c(O)c3c(c(O)c2c1C(=O)NC1CCCNC1)C(=O)c1ccccc1C3=O (configuration not stated) | 0.4 µM | 1 µM | 1 µM | 1.8 µM | 3.2 µM | 12.5 µM | – | – | – | – | – | – | – | – | – | – | – |
| Cc1[nH]c2c(O)c3c(c(O)c2c1C(=O)N1CC[C@@H](N)C1)C(=O)c1ccccc1C3=O | 0.5 µM | 1.5 µM | 0.5 µM | 0.2 µM | 0.3 µM | 15.9 µM | – | – | – | – | – | – | – | – | 17.3 days | 150% | – |
| CCCn1c(C)c(C(=O)N2CC[C@H](N)C2)c2c(O)c3c(c(O)c21)C(=O)c1ccccc1C3=O | 4.5 µM | 2.2 µM | 14.3 µM | 1.3 µM | 1.2 µM | 17.1 µM | 7 µM | 2 µM | 5.8 | – | – | – | – | – | – | – | – |
| Cc1[nH]c2c(O)c3c(c(O)c2c1C(=O)N[C@@H]1CCNC1)C(=O)c1ccccc1C3=O | 1 µM | 2.3 µM | 4.4 µM | 1 µM | 0.8 µM | 14.7 µM | – | – | – | – | – | – | – | – | – | – | – |
| O=C1c2ccccc2C(=O)c2c1c(O)c1scc(C(=O)NC3CCNCC3)c1c2O | 1.2 µM | 1.7 µM | 1.2 µM | 1.6 µM | 1.5 µM | 5.8 µM | – | – | – | – | – | – | – | – | – | – | – |
| COc1cccc2c1C(=O)c1c(O)c3c(c(O)c1C2=O)C[C@@](O)(C(=O)CO)C[C@@H]3O[C@H]1C[C@H](N)[C@H](O)[C@H](C)O1 [DOXORUBICIN] | 1.7 µM | – | 0.4 µM | – | – | 1 µM | 5.5 µM | – | – | – | – | – | – | – | – | – | Active |
| Cc1[nH]c2c(O)c3c(c(O)c2c1C(=O)N[C@H]1CCNC1)C(=O)c1ccccc1C3=O | 1 µM | 1.8 µM | 5.3 µM | 1 µM | 0.7 µM | 17.1 µM | – | – | – | – | – | – | – | – | – | – | – |
| N[C@@H]1CCN(C(=O)c2csc3c(O)c4c(c(O)c23)C(=O)c2ccccc2C4=O)C1 | 2 µM | 2 µM | 0.8 µM | 4.1 µM | 1.2 µM | 12.6 µM | – | – | – | – | – | – | – | – | – | – | – |
| Cc1[nH]c2c(O)c3c(c(O)c2c1C(=O)N1CCC(N)CC1)C(=O)c1ccccc1C3=O | 1.7 µM | 1.4 µM | 2.9 µM | 0.8 µM | 2.3 µM | 14.2 µM | – | – | – | – | – | – | – | – | – | – | – |
| CC(=O)Cn1c(C)c(C(=O)N2CC[C@H](N)C2)c2c(O)c3c(c(O)c21)C(=O)c1ccccc1C3=O | 13.4 µM | 16.9 µM | 16.4 µM | 3.4 µM | 2.2 µM | > 20 µM | – | – | – | – | – | – | – | – | – | – | – |
| Cc1[nH]c2c(O)c3c(c(O)c2c1C(=O)N1CCCC(N)C1)C(=O)c1ccccc1C3=O (configuration not stated) | 1.1 µM | 2 µM | 2.6 µM | 0.2 µM | 0.4 µM | 16.5 µM | – | – | – | – | – | – | – | – | – | – | – |
| O=C1c2ccccc2C(=O)c2c1c(O)c1scc(C(=O)NC3CCCNC3)c1c2O (racemic) | 1.2 µM | 3.2 µM | 2.7 µM | 2.6 µM | 6.8 µM | 6.8 µM | – | – | – | – | – | – | – | – | – | – | – |
